Measurements published in ChEMBL document CHEMBL5608141, “Identification of compartment-specific drug sensitivities in CRC organoid-stroma co-cultures” (2024).
“And” between values parts separate entries of the source, which are not always exact repeats. Identical values can stand only once.

Legend:
Assay type in all cases: functional, Homo sapiens
Parameters in all cases: dose or concentration left out as unconfirmed
Colon cancer organoid [1] = test: Identification of compartment-specific drug sensitivities in O14 CRC organoid-stroma F14 CAF co-cultures. Organoid is transduced with Lucferase2-P2A-EGFP lentivirus, fibroblast with Renilla-dsRed lentivirus. Dual-Glo Luciferase assay is used to report viability data.
Colon cancer organoid [2] = test: Identification of compartment-specific drug sensitivities in O06 CRC organoid-stroma F06 CAF co-cultures. Organoid is transduced with Lucferase2-P2A-EGFP lentivirus, fibroblast with Renilla-dsRed lentivirus. Dual-Glo Luciferase assay is used to report viability data.
Colon cancer organoid [3] = test: Identification of compartment-specific drug sensitivities in O20 CRC organoid-stroma F20 CAF co-cultures. Organoid is transduced with Lucferase2-P2A-EGFP lentivirus, fibroblast with Renilla-dsRed lentivirus. Dual-Glo Luciferase assay is used to report viability data.
[4] = Transduced with Lucferase2-P2A-EGFP lentivirus
[5] = Transduced with Renilla-dsRed lentivirus

| Compound | Cell Viability (Colon cancer organoid [1]; [4]) | Cell Viability (Colon cancer organoid [1]; [5]) | Cell Viability (Colon cancer organoid [2]; [4]) | Cell Viability (Colon cancer organoid [2]; [5]) | Cell Viability (Colon cancer organoid [3]; [4]) | Cell Viability (Colon cancer organoid [3]; [5]) |
| --- | --- | --- | --- | --- | --- | --- |
| Cc1ccc(-c2ccc3c(ccc4sc5c(c43)NC[C@@H](C)NC5=O)n2)cn1 | 77.4963% | 56.184% | 100.355% | 85.371% | 154.003% | 70.7863% |
| CCOC(=O)c1c(/C(C#N)=C\N)c2ccc(Cl)c(Cl)c2n1C | 89.9628% | 62.6784% | 122.99% | 97.4073% | 91.9928% | 87.4636% |
| CCOc1cc(N2CCC(O)CC2)ccc1Nc1ncc2c(n1)N(C)c1ccccc1C(=O)N2C | 113.616% | 107.398% | 85.6087% | 128.987% | 81.3429% | 117.331% |
| CNc1nc(-c2ccc3c(N)n[nH]c3c2)cc(N2C[C@@H](C(=O)NC3CCCCC3)CC[C@H]2C)n1 | 65.7783% | 53.252% | 59.8926% | 53.4401% | 52.0118% | 121.574% |
| Cc1ccc(NC(=O)Nc2cc(C(F)(F)F)ccc2F)cc1Nc1ccc2c(c1)NC(=O)/C2=C\c1ccc[nH]1 | 123.441% | 77.7474% | 46.1941% | 95.0963% | 98.8429% | 67.3177% |
| OCCn1cc(-c2ccc3c(c2)CCC3=NO)c(-c2ccncc2)n1 | 204.013% | 111.094% | 81.3359% | 109.303% | 203.673% | 70.8995% |
| Nc1ccc(C(=O)Nc2cccc(-c3nc(N4CCOCC4)c4oc5ncccc5c4n3)c2)cn1 | 65.9749% | 77.6378% | 78.745% | 81.5262% | 141.773% | 75.1771% |
| O=C1[C@H](Cc2ccc(O)cc2)N2C(=O)CCN(C(=O)NCc3ccccc3)[C@H]2CN1Cc1cccc2ccccc12 | 38.6094% | 83.3915% | 79.2211% | 124.216% | 90.1159% | 144.616% |
| COc1cc2c(NC3CCN(C(C)C)CC3)nc(N3CCC(F)(F)CC3)nc2cc1OCCCN1CCCC1 | 78.7749% | 75.7418% | 88.0521% | 104.162% | 136.596% | 132.743% |
| CCOC(=O)Nc1cc(-c2ccc(C)c(NS(C)(=O)=O)c2)nn2c(C)nnc12 | 91.5211% | 161.373% | 112.605% | 266.102% | 38.74% | 177.965% |
| COc1ccccc1-c1cc(Nc2cccc(CS(N)(=O)=O)c2)ncn1 | 188.969% | 77.1823% | 105.6% | 95.8866% | 105.142% | 97.4583% |
| COc1ccccc1C(=O)Nc1cc2c(cc1N1CCCC1)n(C)c(=O)n2C | – | – | – | – | 114.161% | 143.545% |
| Cc1ccc(C(=O)Nc2cccc(C(F)(F)F)c2)cc1Nc1nc(-c2cccnc2)nc2c1cnn2C | 129.491% | 76.0508% | 60.2736% | 70.9034% | 143.016% | 123.917% |
| CC1=C(C(=O)Nc2cc3cn[nH]c3cc2F)C(c2ccc(C(F)(F)F)cc2)CC(=O)N1 (configuration not stated) | 103.838% | 118.18% | 110.512% | 74.1449% | 133.463% | 94.2958% |
| CCOc1cn(-c2ccc(F)cc2C)nc1C(=O)Nc1ccc(Oc2ccnc3cc(OC)c(OC)cc23)c(F)c1 | 83.4563% and 72.9507% | 89.3323% and 81.5085% | 87.51% and 89.4828% | 84.5689% and 64.7371% | 229.393% and 192.525% | 78.4446% and 96.4847% |
| COc1cc(-c2cn(C)c(=O)c3cnccc23)c(OC)cc1CN(C)C | 100.672% | 88.7606% | 79.252% | 108.934% | 61.6023% | 139.676% |
| CC(C)Oc1ccc(-c2c[nH]cc2CN(C)CCN)cc1 | 53.8658% | 109.482% | 47.5822% | 178.793% | 47.8011% | 252.195% |

| Compound | Cell Viability (Colon cancer organoid [1]; [4]) | Cell Viability (Colon cancer organoid [1]; [5]) | Cell Viability (Colon cancer organoid [2]; [4]) | Cell Viability (Colon cancer organoid [2]; [5]) | Cell Viability (Colon cancer organoid [3]; [4]) | Cell Viability (Colon cancer organoid [3]; [5]) |
| --- | --- | --- | --- | --- | --- | --- |
| CCC(=O)N1CCOc2c(cc(-c3ccc(OC)c(OC)c3)cc2OCC2CCCN(C)C2)C1 (configuration not stated) | 132.169% | 110.752% | 113.999% | 135.091% | 85.7121% | 123.175% |
| O=C(NCC(=O)N1CCCC1)Nc1ccc2cnccc2c1 | 110.898% | 98.9067% | 80.3687% | 124.064% | 121.558% | 100.064% |
| C=CC(=O)Nc1cccc(C(=O)Nc2ccc(Nc3cc(-c4[nH]c(SC)nc4C)ccn3)cc2)c1 | 116.406% | 116.909% | 87.3077% | 89.5907% | 175.79% | 71.728% |
| Cc1cc2c(cc1N1C(=O)c3cccc4c(CCCO)ccc(c34)C1=O)n(C)c(=O)n2C | 52.1608% | 93.143% | 83.3962% | 164.269% | 35.202% | 231.762% |
| Cn1cc(CCn2cnc(-c3cnn(C)c3)c2-c2ccc(C#N)cc2)cn1 | 93.9691% | 90.5921% | 101.212% | 117.261% | 163.337% | 107.326% |
| CCN(CC)S(=O)(=O)Nc1cccc(-c2ccc3c(NC(=O)C4CC4)n[nH]c3c2)c1 | 139.261% | 96.9304% | 76.8554% | 107.031% | 76.1767% | 136.148% |
| CC(C)C(=O)Nc1n[nH]c2cc(-c3cccc(NS(=O)(=O)C4CC4)c3)ccc12 | 122.353% | 104.553% | 78.2505% | 111.722% | 85.5363% | 102.387% |
| Clc1cc2c(NC3CCCC3)nnc(-c3ccncc3)c2cc1Cl | 104.198% | 96.8835% | 131.765% | 133.642% | 149.848% | 128.6% |
| CN1C(=O)c2sccc2N(C)c2nc(Nc3ccc(S(N)(=O)=O)cc3)ncc21 | 48.6334% | 48.1427% | 23.972% | 57.2364% | 35.7299% | 84.1947% |
| CN(C)C(=O)/C(C#N)=C/c1ccc(-c2nc3cnc4[nH]ccc4c3n2C2CCCCC2)o1 | 107.956% | 74.8679% | 57.9428% | 82.2998% | 75.2682% | 130.215% |
| Cl.Cl.NC1(c2ccc(-c3nc4ccn5c(=O)[nH]nc5c4cc3-c3ccccc3)cc2)CCC1 | 76.882% | 55.4067% | 59.9467% | 67.7481% | 44.0229% | 145.22% |
| Cn1cc(-c2ccc3occ(-c4ccccc4-c4ccccc4)c3n2)cn1 | 109.875% | 78.5125% | 43.2566% | 104.957% | 88.7548% | 89.3741% |
| Cn1cc(-c2ccc3occ(-c4cccc(-c5ccncc5)c4)c3n2)cn1 | 87.0505% | 83.2978% | 70.7683% | 132.305% | 65.7439% | 132.411% |
| Cl.O=C([C@@H](Cc1cccc(C(F)(F)F)c1)NS(=O)(=O)c1cc(F)c2c(c1)CCNC2)N1CCCC1 | 117.922% | 108.808% | 84.043% | 115.078% | 153.218% | 150.248% |
| CN(C)C(=O)/C(C#N)=C/c1ccc(-c2nc3cnc4c(ccn4C)c3n2C2CCCCC2)o1 | 110.125% | 86.2886% | 28.6002% | 127.582% | 49.7098% | 127.191% |
| CS(=O)(=O)N1CCN(Cc2cc3nc(-c4cccc5[nH]ncc45)nc(N4CCOCC4)c3s2)CC1 [PICTILISIB] | 42.7401% | 54.6957% | 43.124% | 60.0718% | – | – |
